Values quoted from earlier work as cited in patent US8039631B2, “Process for preparing crystalline form A of Lansoprazole” (Daewoong Pharmaceutical Co., Ltd., priority 2006, dated 2011).
Where two headings read alike, the source gives them in different places.

Columns and labels:
[1] = not given; remark: listed apart in the source

stability (change) when stored (stored for one year at room temperature or elevated temperature)	conversion of Form B to Form A ([1]; at 40° C.)	conversion of Form B to Form A ([1]; at a temperature of 10° C. or lower)	change in the crystalline form on storage (at elevated temperature)	stability when stored (stored for one year at a low temperature (0° C. or lower))	SMILES
does not change	–	–	–	–	Cc1c(OCC(F)(F)F)ccnc1C[S+]([O-])c1nc2ccccc2[nH]1 (centres unmarked) [Form A, Lansoprazole]
–	rapidly	slowly converted to Form A	some change in the crystalline form	high stability	Cc1c(OCC(F)(F)F)ccnc1C[S+]([O-])c1nc2ccccc2[nH]1 (centres unmarked) [Form B, Lansoprazole]
